Results taken from US6156700A, “3-(1,2-Benzisothiazol- and isoxazol-5-yl)-2,4(1H,3H)-pyrimidinedione or thione and 3-(1,2-benzisothiazol- and isoxazol-5-yl)-4(3H)-pyrimidinone or thione herbicidal agents” (American Cyanmid Company, priority 1998, dated 2000).

Legend:
[1] = system: Lambsquarters, Common, Chenopodium album; experiment: Postemergence herbicidal evaluation, CHEAL; format: in vivo, L.; conditions: 0.2500 kg/ha
Summary of the method: (§1)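 Postemergence spray on ~2-wk seedlings: ~0.0157–0.500 kg/ha in acetone/water 50/50, 0.5% TWEEN 20, 40 psi. Greenhouse hold 4–5 wk, then 0–9 visual score; repeat tests averaged.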

[2] = system: Barnyardgrass, Echinochloa crus-galli; experiment: Postemergence herbicidal evaluation, ECHCG; format: in vivo, (L.) Beau; conditions: 0.2500 kg/ha
Summary of the method: as §1

[3] = system: Foxtail, Green, Setaria viridis; experiment: Postemergence herbicidal evaluation, SETVI; format: in vivo, (L.) Beau; conditions: 0.2500 kg/ha
Summary of the method: as §1

[4] = system: Soybean, Glycine max; experiment: Postemergence herbicidal evaluation, GLXMA; format: in vivo, (L.) Merr.; conditions: 0.2500 kg/ha
Method: In the tests, seedling plants are grown in jiffy flats for about two weeks. The test compounds are dispersed in 50/50 acetone/water mixtures containing 0.5% TWEEN®20, a polyoxyethylene sorbitan monolaurate surfactant of Atlas Chemical Industries, in sufficient quantities to provide the equivalent of about 0.0157 kg to 0.500 kg per hectare of active compound when applied to the plants through a spray nozzle operating at 40 psi for a predetermined time. After spraying, the plants are placed on greenhouse benches and are cared for in accordance with conventional greenhouse procedures. From four to five weeks after treatment, the seedling plants are examined and rated according to the rating system set forth below. Where more than one test is involved for a given compound, the data are averaged.
(§2) Results of herbicide evaluation are expressed on a rating scale (0-9). The scale is based upon a visual observation of plant stand, vigor, malformation, size, chlorosis and overall plant appearance as compared with a control.

[5] = system: Rice, Tebonnet, Oryza sativa; experiment: Postemergence herbicidal evaluation, ORYSAT; format: in vivo, (L.) Tebonnet; conditions: 0.2500 kg/ha
Summary of the method: as §1

[6] = system: Wheat, Winter, cv Riband, Triticum aestivum; experiment: Postemergence herbicidal evaluation, TRZAWR; format: in vivo; conditions: 0.2500 kg/ha
Summary of the method: as §1

[7] = system: Corn, Field, Zea mays; experiment: Postemergence herbicidal evaluation, ZEAMX; format: in vivo, L.; conditions: 0.2500 kg/ha
Summary of the method: as §1

[8] = system: Sicklepod, Cassia obtusifolia; experiment: Preemergence herbicidal evaluation, CASOB; format: in vivo, L.; conditions: 0.2500 kg/ha
Summary of the method: (§3)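 Preemergence spray, aqueous acetone solution, ~0.0156–0.500 kg/ha, applied to freshly seeded soil cups. Greenhouse, 4–5 wk. Visual 0–9 rating vs untreated control (stand, vigor, malformation, size, chlorosis, overall appearance).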

[9] = system: Lambsquarters, Common, Chenopodium album; experiment: Preemergence herbicidal evaluation, CHEAL; format: in vivo, L.; conditions: 0.2500 kg/ha
From the text: as §2
(§4) The preemergence herbicidal activity of the test compounds of the present invention is exemplified by the following tests in which the seeds of a variety of monocotyledonous and dicotyledonous plants are separately mixed with potting soil and planted on top of approximately one inch of soil in separate pint cups. After planting, the cups are sprayed with the selected aqueous acetone solution containing test compound in sufficient quantity to provide the equivalent of about 0.0156 to 0.500 kg per hectare of test compound per cup. The treated cups are then placed on greenhouse benches, watered and cared for in accordance with conventional greenhouse procedures. From four to five weeks after treatment, the tests are terminated and each cup is examined and rated according to the rating system provided in Example 185.
(§5) The compounds evaluated are reported by compound number given in Example 185.

[10] = system: Galium, Galium aparine; experiment: Preemergence herbicidal evaluation, GALAP; format: in vivo; conditions: 0.2500 kg/ha
From the text: as §2, §4, §5

[11] = system: Morningglory Spp., Ipomoea Spp.; experiment: Preemergence herbicidal evaluation, IPOSS; format: in vivo; conditions: 0.2500 kg/ha
From the text: as §2, §4, §5

[12] = system: Wheat, Winter, cv Riband, Triticum aestivum; experiment: Preemergence herbicidal evaluation, TRZAWR; format: in vivo; conditions: 0.2500 kg/ha
Summary of the method: as §3

[13] = system: CYPSE Flatsedge; experiment: Preemergence weed control, flooded paddy (Table III); format: in vivo, Cyperus serotinus; parameters: scale not given here
Method: (§6) Preemergence herbicidal activity under flooded paddy conditions is determined as follows: plant seeds or propagating organs are planted in the top 0.5 cm of silt loam soil in 32 oz. plastic containers with a diameter of 10.5 cm and no drainage holes. Water is added to these containers and maintained at 1.5 to 3 cm above the soil surface for the duration of the experiment. The test compounds are applied as aqueous/acetone mixtures 50/50 v/v pipetted directly into the flood water to give the equivalent of about 0.0313 to 0.500 kg/ha of active ingredient. The treated containers are placed on greenhouse benches and cared for in accordance with conventional greenhouse procedures. Three to four weeks after treatment, the test is terminated and each container is examined and herbicidal effect rated according to the rating system provided in Example 185. The compounds evaluated are reported by compound number given in Example 185.

[14] = system: MOOVA Monochoria; experiment: as above; format: in vivo, Monochoria vaginalis; parameters: scale not given here
Method: as §6

[15] = system: SAGPY Arrowhead (Pygmaea); experiment: as above; format: in vivo, Sagittaria pygmaea; parameters: scale not given here
Method: as §6

[16] = system: CYPIR Rice Flatsedge; experiment: Postemergence weed control, flooded paddy (Table IV); format: in vivo, Cyperus iria; parameters: scale not given here
Summary of the method: (§7)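 Containers holding 3 to 5 cm weeds and rice at the 1.5 to 2.5 leaf stage are flooded and kept 1.5 to 3 cm deep. Test material is applied directly into the water at about 0.0313 to 0.500 kg/ha, then plants are held in the greenhouse for three to four weeks before rating.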

[17] = system: CYPSE Flatsedge; experiment: as above; format: in vivo, Cyperus serotinus; parameters: scale not given here
Summary of the method: as §7

[18] = system: SAGPY Arrowhead (Pygmaea); experiment: as above; format: in vivo, Sagittaria pygmaea; parameters: scale not given here
Summary of the method: as §7

[19] = system: ORYSAT Rice, Tebonnet; experiment: Rice tolerance, flooded paddy (Table IV); format: in vivo, Oryza sativa; parameters: scale not given here; conditions: crop tolerance
Summary of the method: as §7

[20] = system: Soybean, Williams, Glycine max; experiment: Postemergence herbicidal evaluation, GLXMAW; format: in vivo, (L.) Merr. cv Williams; conditions: 0.2500 kg/ha
Summary of the method: as §1

SMILES | herbicide rating (0-9) [1] | herbicide rating (0-9) [2] | herbicide rating (0-9) [3] | herbicide rating (0-9) [5] | herbicide rating (0-9) [6] | herbicide rating (0-9) [7] | herbicide rating (0-9) [8] | herbicide rating (0-9) [11] | herbicide rating (0-9) [12] | herbicidal effect rating ([13]; 0.0625 kg/ha) | herbicidal effect rating ([13]; 0.1250 kg/ha) | herbicidal effect rating ([13]; 0.2500 kg/ha) | herbicidal effect rating ([13]; 0.5000 kg/ha) | herbicidal effect rating ([14]; 0.0313 kg/ha) | herbicidal effect rating ([14]; 0.0625 kg/ha) | herbicidal effect rating ([14]; 0.1250 kg/ha) | herbicidal effect rating ([14]; 0.2500 kg/ha) | herbicidal effect rating ([14]; 0.5000 kg/ha) | herbicidal effect rating ([15]; 0.0313 kg/ha) | herbicidal effect rating ([15]; 0.0625 kg/ha) | also measured
Cn1c(C(F)(F)F)cc(=O)n(-c2ccc3snc(-c4ccccc4)c3c2)c1=O [Compound 4, 1-Methyl-3-(3-phenyl-1,2-benzisothiazol-5-yl)-6-(trifluoromethyl)-2,4(1H,3H)-pyrimidinedione] | 9.0 | 8.0 | 9.0 | 3.0 | 3.0 | 3.0 | 9.0 | 9.0 | 7.0 | 2.0 | 9.0 | 9.0 | 9.0 | 9.0 | 9.0 | 9.0 | 9.0 | 9.0 | 2.0 | 2.0 | herbicide rating (0-9) [4]: 9.0; herbicide rating (0-9) [9]: 9.0; herbicide rating (0-9) [10]: 9.0; herbicidal effect rating ([15]; 0.1250 kg/ha): 6.0; herbicidal effect rating ([15]; 0.2500 kg/ha): 9.0; herbicidal effect rating ([15]; 0.5000 kg/ha): 9.0; herbicidal effect rating ([16]; 0.1250 kg/ha): 9.0; herbicidal effect rating ([16]; 0.2500 kg/ha): 9.0; herbicidal effect rating ([16]; 0.5000 kg/ha): 9.0; herbicidal effect rating ([17]; 0.1250 kg/ha): 7.0; herbicidal effect rating ([17]; 0.2500 kg/ha): 7.0; herbicidal effect rating ([17]; 0.5000 kg/ha): 9.0; herbicidal effect rating ([18]; 0.1250 kg/ha): 6.0; herbicidal effect rating ([18]; 0.2500 kg/ha): 9.0; herbicidal effect rating ([18]; 0.5000 kg/ha): 9.0; herbicidal effect rating ([19]; 0.1250 kg/ha): 7.0; herbicidal effect rating ([19]; 0.2500 kg/ha): 8.0; herbicidal effect rating ([19]; 0.5000 kg/ha): 8.0
CCc1ccc(-c2nsc3ccc(-n4c(=O)cc(C(F)(F)F)n(C)c4=O)cc23)cc1 [Compound 5, 3-[3-(p-Ethylphenyl)-1,2-benzisothiazol-5-yl]-1-methyl-6-(trifluoromethyl)-2,4 (1H,3H)-pyrimidinedione] | 9.0 | 7.0 | 9.0 | 3.0 | 2.0 | 3.0 | 9.0 | 9.0 | 4.0 | 2.0 | 6.0 | 8.0 | 7.0 | 9.0 | 9.0 | 9.0 | 9.0 | 9.0 | 0.0 | 0.0 | herbicide rating (0-9) [4]: 7.0; herbicide rating (0-9) [9]: 9.0; herbicide rating (0-9) [10]: 6.0; herbicidal effect rating ([13]; 0.0313 kg/ha): 0.0; herbicidal effect rating ([15]; 0.1250 kg/ha): 2.0; herbicidal effect rating ([15]; 0.2500 kg/ha): 7.0; herbicidal effect rating ([15]; 0.5000 kg/ha): 7.0; herbicidal effect rating ([16]; 0.1250 kg/ha): 9.0; herbicidal effect rating ([16]; 0.2500 kg/ha): 9.0; herbicidal effect rating ([16]; 0.5000 kg/ha): 9.0; herbicidal effect rating ([17]; 0.1250 kg/ha): 0.0; herbicidal effect rating ([17]; 0.2500 kg/ha): 0.0; herbicidal effect rating ([17]; 0.5000 kg/ha): 0.0; herbicidal effect rating ([18]; 0.1250 kg/ha): 4.0; herbicidal effect rating ([18]; 0.2500 kg/ha): 6.0; herbicidal effect rating ([18]; 0.5000 kg/ha): 8.0; herbicidal effect rating ([19]; 0.1250 kg/ha): 4.0; herbicidal effect rating ([19]; 0.2500 kg/ha): 6.0; herbicidal effect rating ([19]; 0.5000 kg/ha): 8.0
COC(=O)COc1cc(C)c(C)cc1-c1nsc2ccc(-n3c(=O)cc(C(F)(F)F)n(C)c3=O)cc12 [Compound 12, Methyl {{6-{5-[3,6-dihydro-3-methyl-4-(trifluoromethyl)-2,6-dioxo-1(2H)-pyrimidinyl]-1,2-benzisothiazol-3-yl}-3,4-xylyl}oxy}acetate] | 9.0 | 9.0 | 9.0 | 9.0 | 9.0 | 9.0 | 9.0 | 9.0 | 5.0 | 7.0 | 8.0 | 7.0 | 7.0 | 9.0 | 9.0 | 9.0 | 9.0 | 9.0 | 0.0 | 2.0 | herbicide rating (0-9) [20]: 9.0; herbicidal effect rating ([13]; 0.0313 kg/ha): 6.0; herbicidal effect rating ([15]; 0.1250 kg/ha): 4.0; herbicidal effect rating ([15]; 0.2500 kg/ha): 9.0; herbicidal effect rating ([15]; 0.5000 kg/ha): 9.0; herbicidal effect rating ([16]; 0.1250 kg/ha): 9.0; herbicidal effect rating ([16]; 0.2500 kg/ha): 9.0; herbicidal effect rating ([16]; 0.5000 kg/ha): 9.0; herbicidal effect rating ([17]; 0.5000 kg/ha): 2.0; herbicidal effect rating ([18]; 0.1250 kg/ha): 0.0; herbicidal effect rating ([18]; 0.2500 kg/ha): 4.0; herbicidal effect rating ([18]; 0.5000 kg/ha): 9.0; herbicidal effect rating ([19]; 0.1250 kg/ha): 7.0; herbicidal effect rating ([19]; 0.2500 kg/ha): 7.0; herbicidal effect rating ([19]; 0.5000 kg/ha): 7.0
COC(=O)C(C)Oc1cc(C)c(C)cc1-c1nsc2ccc(-n3c(=O)cc(C(F)(F)F)n(C)c3=O)cc12 (centres unmarked) [Compound 13, Methyl 2-{{6-{5-[3,6-dihydro-3-methyl-4-(trifluoromethyl)-2,6-dioxo-1(2H)-pyrimidinyl]-1,2-benzisothiazol-3-yl}-3,4-xylyl}oxy}propionate] | 9.0 | 9.0 | 9.0 | 8.0 | 8.5 | 9.0 | 9.0 | 9.0 | 4.0 | 2.0 | 7.0 | 7.0 | 7.0 | 9.0 | 9.0 | 9.0 | 9.0 | 9.0 | 0.0 | 2.0 | herbicide rating (0-9) [20]: 8.5; herbicidal effect rating ([13]; 0.0313 kg/ha): 0.0; herbicidal effect rating ([15]; 0.1250 kg/ha): 6.0; herbicidal effect rating ([15]; 0.2500 kg/ha): 8.0; herbicidal effect rating ([15]; 0.5000 kg/ha): 9.0; herbicidal effect rating ([16]; 0.1250 kg/ha): 9.0; herbicidal effect rating ([16]; 0.2500 kg/ha): 9.0; herbicidal effect rating ([16]; 0.5000 kg/ha): 9.0; herbicidal effect rating ([17]; 0.1250 kg/ha): 2.0; herbicidal effect rating ([17]; 0.2500 kg/ha): 4.0; herbicidal effect rating ([17]; 0.5000 kg/ha): 2.0; herbicidal effect rating ([18]; 0.1250 kg/ha): 2.0; herbicidal effect rating ([18]; 0.2500 kg/ha): 2.0; herbicidal effect rating ([18]; 0.5000 kg/ha): 9.0; herbicidal effect rating ([19]; 0.1250 kg/ha): 4.0; herbicidal effect rating ([19]; 0.2500 kg/ha): 4.0; herbicidal effect rating ([19]; 0.5000 kg/ha): 7.0
